Like-named read-outs stand apart in the source and are kept apart here.
Assays:
[1] = design: method as in PMID 29185060; conditions: octanol/water, EPA CompTox Chemicals Dashboard; cited from earlier work
[2] = biological target: T1, bovine serum albumin (BSA) (Bos taurus, UniProt P02769); experiment: Label-free differential scanning fluorimetry, equilibrium-based binding model near BSA melting temperature; conditions: for Ka (association constant): 61 °C, 10 μM BSA in pH 7.4 PBS, fit to Eqs. (1) and (2), standard error in parentheses
T1 construct: purchased Sigma-Aldrich (St. Louis, MO)
T1 sequence (P02769 25-607): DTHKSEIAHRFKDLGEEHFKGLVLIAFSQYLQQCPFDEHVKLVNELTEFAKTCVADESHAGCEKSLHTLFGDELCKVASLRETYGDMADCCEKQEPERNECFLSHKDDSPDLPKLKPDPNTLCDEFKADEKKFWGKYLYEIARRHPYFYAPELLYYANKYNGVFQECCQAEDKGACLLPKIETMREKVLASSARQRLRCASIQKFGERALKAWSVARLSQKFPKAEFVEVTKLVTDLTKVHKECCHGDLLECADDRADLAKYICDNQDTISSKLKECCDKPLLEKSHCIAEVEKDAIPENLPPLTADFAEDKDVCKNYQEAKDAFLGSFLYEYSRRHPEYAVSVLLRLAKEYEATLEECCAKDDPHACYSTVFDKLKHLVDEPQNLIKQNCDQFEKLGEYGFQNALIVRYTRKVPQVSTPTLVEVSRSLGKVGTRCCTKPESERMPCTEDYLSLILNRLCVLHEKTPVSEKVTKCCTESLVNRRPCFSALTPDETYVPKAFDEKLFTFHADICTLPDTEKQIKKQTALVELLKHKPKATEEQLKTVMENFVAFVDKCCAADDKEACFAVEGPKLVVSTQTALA
Description: (§1) Bovine serum albumin (lyophilized powder, 99% fatty acid free) was obtained from Sigma-Aldrich (St. Louis, MO). A BSA concentration of 10 μM in pH 7.4 phosphate buffered saline (PBS) was used in each experiment. The solution of BSA was kept at 4 °C prior to use.
Experiments were conducted using a Tycho NT.6 differential scanning fluorimeter (NanoTemper, Munich, Germany). […] Solutions were prepared a day in advance of the experiment and stored at 4 °C. Immediately prior to analysis, each sample was loaded into a 1 mm diameter glass capillary and placed in the instrument. […] Fluorescence intensity was measured at 0.1 °C intervals at emission wavelengths of 330 and 350 nm. The ratio of the intensity at these wavelengths, I350/I330, was used to account for blue shifts in the emission peak wavelengths with increasing temperature. The minimum value of the first derivative of the I350/I330 curve with respect to temperature, denoting the midpoint of the melting transition where the fraction of folded to unfolded protein is 1, was taken as the melting temperature Tm. Each experiment was performed in triplicate.
As described by Eftink and Ghiron[44], baseline subtraction of the raw fluorescence intensity data collected at 350 nm was performed at both high and low temperatures. The plots were then normalized by dividing by the maximum intensity value.
The term fU is the fraction of unfolded protein based on the concentration of unfolded protein, [U], divided by the total protein, [P]t, which is the sum of [U], folded protein [F], and folded protein with bound ligand [FL]. [L] is the total free ligand by correcting the total ligand concentration, [L]t, which is a main benefit of this model. KU represents the equilibrium between folded and unfolded protein, and Kd is the ligand dissociation constant from the bound to unbound states.3 Kd=Ka-1=F[L]/[FL]

[3] = biological target: T1, bovine serum albumin (BSA); experiment: Label-free differential scanning fluorimetry, BSA melting temperature shift (protein stabilization); type: binding; conditions: for Stabilizing effect on BSA folded structure (ΔTm): ligand:BSA ratios 0:1 to 4:1, 10 μM BSA, pH 7.4 PBS
Description: as §1
Experiments were conducted using a Tycho NT.6 differential scanning fluorimeter (NanoTemper, Munich, Germany). PFAS was added to 2 mL of the stock BSA solution to obtain the PFAS:BSA or FA:BSA ratios of 0:1, 0.5:1, 1:1, 2:1, 3:1, and 4:1. Solutions were prepared a day in advance of the experiment and stored at 4 °C. Immediately prior to analysis, each sample was loaded into a 1 mm diameter glass capillary and placed in the instrument. […] Fluorescence intensity was measured at 0.1 °C intervals at emission wavelengths of 330 and 350 nm. The ratio of the intensity at these wavelengths, I350/I330, was used to account for blue shifts in the emission peak wavelengths with increasing temperature. The minimum value of the first derivative of the I350/I330 curve with respect to temperature, denoting the midpoint of the melting transition where the fraction of folded to unfolded protein is 1, was taken as the melting temperature Tm. Each experiment was performed in triplicate.

[4] = biological target: T1, bovine serum albumin (BSA); experiment: Tryptophan fluorescence quenching from DSF, Hill adsorption model; type: binding; conditions: 35 °C to 50 °C
Description: as §1
Experiments were conducted using a Tycho NT.6 differential scanning fluorimeter (NanoTemper, Munich, Germany). PFAS was added to 2 mL of the stock BSA solution to obtain the PFAS:BSA or FA:BSA ratios of 0:1, 0.5:1, 1:1, 2:1, 3:1, and 4:1. Solutions were prepared a day in advance of the experiment and stored at 4 °C. Immediately prior to analysis, each sample was loaded into a 1 mm diameter glass capillary and placed in the instrument. Thermal scans were conducted from 35 to 95 °C at a scan rate of […] with a 285 nm excitation wavelength. Fluorescence intensity was measured at 0.1 °C intervals at emission wavelengths of 330 and 350 nm. The ratio of the intensity at these wavelengths, I350/I330, was used to account for blue shifts in the emission peak wavelengths with increasing temperature. The minimum value of the first derivative of the I350/I330 curve with respect to temperature, denoting the midpoint of the melting transition where the fraction of folded to unfolded protein is 1, was taken as the melting temperature Tm. Each experiment was performed in triplicate. The same procedure was used for the control ligand warfarin.
The Hill model has been used to correct for the presence of a fluorescent protein–ligand complex and binding cooperativity[21],[34].4 I0-I/I0-Ires=KHillQ^nHill/1+KHillQ^nHill
I0 and I are the fluorescence intensity of BSA in the absence and presence of the ligand and Ires accounts for residual fluorescence at infinite quencher concentration. KHill and nHill are the Hill binding constant and the cooperativity constant, respectively, and [Q] is the concentration of added quencher (PFAS or FA).

[5] = design: method as in PMID 29185060; conditions: octanol/water; experimental average (in parentheses), EPA CompTox Chemicals Dashboard; cited from earlier work
[6] = system: cattle; conditions: varies by sex; cited from earlier work
[7] = ligand:BSA ratio up to 4:1, native protein Tm 62 °C

Row | Compound | Log Kow (predicted average) [1] | Kd [2] [µM] | Stabilizing effect on BSA folded structure (ΔTm) [3] | Temperature dependence of KHill (Hill association constant) [4] | Log Kow (experimental average) [5] | Ka (association constant) [2] | Tm of BSA with ligand [3, 7] [°C] | Tm of BSA with ligand [3] [°C] | half-life [6] [days]
1 | CCCCCCCCCC(=O)O [DA, Decanoic acid] | 4.03 | 27.6 | – | – | – | – | – | – | –
2 | O=C(O)C(F)(OC(F)(F)C(F)(F)C(F)(F)F)C(F)(F)F (stereo not drawn) [GenX, Perfluoro-2-methyl-3-oxahexanoic acid] | 5.41 | 50.5 | little stabilization | does not change with temperature | – | – | – | – | –
3 | CCCCCCCCC(=O)O [NA, Nonanoic acid] | 3.41 | 0.341 | – | – | 3.42 | – | – | – | –
4 | CCCCCCCC(=O)O [OA, Octanoic acid] | 2.99 | – | – | – | 3.05 | – | – | – | –
5 | O=S(=O)([O-])C(F)(F)C(F)(F)C(F)(F)C(F)(F)F.[Na+] [PFBS, Sodium perfluorobutylsulfonate] | 2.20 | – | little stabilization | – | – | 2.08 (0.61) 10^4 M^−1 | – | – | –
6 | O=C(O)C(F)(F)C(F)(F)C(F)(F)C(F)(F)C(F)(F)C(F)(F)C(F)(F)C(F)(F)C(F)(F)F [PFDA, Perfluorodecanoic acid] | 7.32 | – | no measurable protein stabilization | increasing with temperature | 4.15 | 0.33 (0.26) 10^4 M^−1 | – | – | –
7 | O=S(=O)(O)C(F)(F)C(F)(F)C(F)(F)C(F)(F)C(F)(F)C(F)(F)F [PFHxS, Sodium perfluorohexanesulfonate] | 2.91 | 10.6 | greatest stabilizing effect | – | – | – | 69 to 71 | – | –
8 | O=C(O)C(F)(F)C(F)(F)C(F)(F)C(F)(F)C(F)(F)C(F)(F)C(F)(F)C(F)(F)F [PFNA, Perfluorononanoic acid] | 6.51 | – | greatest stabilizing effect | increasing with temperature | 3.54 | – | – | 69 to 71 | –
9 | O=C(O)C(F)(F)C(F)(F)C(F)(F)C(F)(F)C(F)(F)C(F)(F)C(F)(F)F [PFOA, Perfluorooctanoic acid] | 5.68 | 41 | – | increasing with temperature | 3.10 | – | 69 to 71 | – | –
10 | O=S(=O)(O)C(F)(F)C(F)(F)C(F)(F)C(F)(F)C(F)(F)C(F)(F)C(F)(F)C(F)(F)F [PFOS, Sodium perfluorooctanesulfonate] | 4.94 | – | minimal shift Tm | – | – | – | – | – | 39 to 120

Reference: publication PMC10948889, “Differential scanning fluorimetry to assess PFAS binding to bovine serum albumin protein” (Scientific Reports, 2024)
